In brackets after ≈: the same amount, converted by molar mass.

From patent EP0090603A2, “Antibacterial compounds” (BEECHAM GROUP PLC, priority 1982, dated 1983) come the findings set out here.

One test deals with M. suipneumoniae TAM 6N. The experiment in a line: MIC against Mycoplasma, in vitro agar dilution. Type of test: cell-based. The note with it: Mesomycoplasma hyopneumoniae, TAM6N, 144 h; Friis broth solidified with 0.9% agarose, 10^3 to 10^5 C.F.U., 6 days at 37°C; read-out: MIC's against M. suipneumoniae TAM 6N. Background: Agar dilution tests growth on a series of plates holding different concentrations.

For the next test, the system named is M. suipneumoniae Str. 11. The experiment in a line: MIC against Mycoplasma, in vitro agar dilution. The conditions noted are these: Mesomycoplasma hyopneumoniae, STR.11, 144 h; Friis broth solidified with 0.9% agarose, 10^3 to 10^5 C.F.U., 6 days at 37°C; read-out: MIC's against M. suipneumoniae Str. 11. Type of test: cell-based.
The subject of a further test is M. bovis NCTC 10131. The experiment in a line: microbe, parasite or virus in culture. Type of test: cell-based. The conditions noted are these: NCTC10131, 144 h, read-out: MIC's against M. bovis NCTC 10131.
In a further test the test system is M. suipneumoniae NB12. The test can be described thus: MIC against Mycoplasma, in vitro agar dilution. The conditions noted are these: Mesomycoplasma hyopneumoniae, NB12, 144 h; Friis broth solidified with 0.9% agarose, 10^3 to 10^5 C.F.U., 6 days at 37°C; read-out: MIC's against M. suipneumoniae NB12. Type of test: cell-based.
Another test deals with Strep. dysgalactiae SPD1. The experiment in a line: MIC against Veterinary Bacteria, in vitro agar dilution. The note with it: Streptococcus dysgalactiae, SPD1, 18 h, read-out: MIC's against Strep. dysgalactiae SPD1.
For test [1], the system named is Strep. suis (group D) SPS11. The test is described as above. The note with it: Streptococcus suis, 18 h, read-out: MIC's against Strep. suis (group D) SPS11.
Protocol: (§1) The activity of the compounds of the Examples against various veterinarily important bacteria, was assayed in vitro using two-fold serial dilutions in Diagnostic Sensitivity Test Agar inoculated with 10^4 organisms.
Another test has as its system M. suipneumoniae MS 16. The test can be described thus: MIC against Mycoplasma, in vitro agar dilution. The test is classed as cell-based. The conditions noted are these: Mesomycoplasma hyopneumoniae, MS16, 144 h; Friis broth solidified with 0.9% agarose, 10^3 to 10^5 C.F.U., 6 days at 37°C; read-out: MIC's against M. suipneumoniae MS 16.
A further test deals with M. hyorhinis ATCC 23234. The experiment in a line: MIC against Mycoplasma, in vitro agar dilution. The test is classed as cell-based. The conditions noted are these: Mesomycoplasma hyorhinis, ATCC23234, 144 h; Friis broth solidified with 0.9% agarose, 10^3 to 10^5 C.F.U., 6 days at 37°C; read-out: MIC's against M. hyorhinis ATCC 23234.
A further test concerns Past. multocida PA1. The test can be described thus: MIC against Veterinary Bacteria, in vitro agar dilution. The conditions noted are these: Pasteurella multocida, PA1, 18 h, read-out: MIC's against Past. multocida PA1.
The test system of the next test is M. suipneumoniae LABER. The test can be described thus: MIC against Mycoplasma, in vitro agar dilution. Type of test: cell-based. The note with it: Mesomycoplasma hyopneumoniae, 144 h; Friis broth solidified with 0.9% agarose, 10^3 to 10^5 C.F.U., 6 days at 37°C; read-out: MIC's against M. suipneumoniae LABER.
The test system of test [2] is Staph. aureus 152 (pen. sens). The experiment in a line: MIC against Veterinary Bacteria, in vitro agar dilution. The note with it: Staphylococcus aureus, 18 h, read-out: MIC's against Staph. aureus 152 (pen. sens).
Protocol: as §1
Another test deals with E. coli NCTC 10418. The test is described as above. The note with it: Escherichia coli, NCTC10418, 18 h, read-out: MIC's against E. coli NCTC 10418.
Test [3] concerns M. hyosynoviae ATCC 25591. The test can be described thus: MIC against Mycoplasma, in vitro agar dilution. The test is classed as cell-based. The conditions noted are these: 144 h; Friis broth solidified with 0.9% agarose, 10^3 to 10^5 C.F.U., 6 days at 37°C; read-out: MIC's against M. hyosynoviae ATCC 25591.
The subject of the next test is Past. multocida PA2. The test can be described thus: MIC against Veterinary Bacteria, in vitro agar dilution. The note with it: Pasteurella multocida, PA2, 18 h, read-out: MIC's against Past. multocida PA2.

Protocol for E. coli NCTC 10418: as §1
Protocol for Past. multocida PA1: as §1
Protocol for Past. multocida PA2: as §1
Protocol for Strep. dysgalactiae SPD1: as §1

With `COC(=O)C(C)=C(C)CC1OCC(CC2OC2C(C)C(C)O)C(O)C1O` [Example 2, Methyl 4-[5S-(2S,3S-epoxy-5S-hydroxy-4S-methylhexyl)-3R,4R-dihydroxytetrahydropyran-2S-yl]-2,3-dimethylbut-2(E)-enoate], the MIC is 10 µg/mL (≈ 26.8 µM) in the test with M. suipneumoniae TAM 6N; 5 µg/mL (≈ 13.4 µM) in the test with M. suipneumoniae Str. 11; 0.25 µg/mL (≈ 0.671 µM) in the test on M. bovis NCTC 10131; 5 µg/mL (≈ 13.4 µM) in the test on M. suipneumoniae NB12; 40 µg/mL (≈ 107 µM) in the test on Strep. dysgalactiae SPD1; > 80 µg/mL in test [1]. For the same compound, the MIC with M. suipneumoniae MS 16 was 5 µg/mL (≈ 13.4 µM); in the test on M. hyorhinis ATCC 23234, 5 µg/mL (≈ 13.4 µM); in the test with Past. multocida PA1, 10 µg/mL (≈ 26.8 µM); in the test on M. suipneumoniae LABER, 5 µg/mL (≈ 13.4 µM); in [2], 5 µg/mL (≈ 13.4 µM); with E. coli NCTC 10418 it was > 80 µg/mL. The MIC (in test [3]; in the test on Past. multocida PA2) was 5 µg/mL (≈ 13.4 µM) in each case.

As for `CCOC(=O)C(C)=C(C)CC1OCC(CC2OC2C(C)C(C)O)C(O)C1O` [Example 1, Ethyl 4-[5S-(2S,3S-epoxy-5S-hydroxy-4S-methylhexyl)-3R,4R-dihydroxytetrahydropyran-2S-yl]-2,3-dimethylbut-2(E)-enoate], the MIC in the test with M. suipneumoniae TAM 6N was 2.5 µg/mL (≈ 6.47 µM); in the test on M. suipneumoniae Str. 11, 1 µg/mL (≈ 2.59 µM); in the test on M. bovis NCTC 10131, 0.05 µg/mL (≈ 0.129 µM); in the test with M. suipneumoniae NB12 it was 1 µg/mL (≈ 2.59 µM); with Strep. dysgalactiae SPD1, 5 µg/mL (≈ 12.9 µM); in test [1], > 80 µg/mL. Moreover, the MIC in the test with M. suipneumoniae MS 16 was 0.5 µg/mL (≈ 1.29 µM); in the test on M. hyorhinis ATCC 23234 it was 0.5 µg/mL (≈ 1.29 µM); in the test with Past. multocida PA1, 2.5 µg/mL (≈ 6.47 µM); in the test on M. suipneumoniae LABER it was 1 µg/mL (≈ 2.59 µM); in [2], 0.625 µg/mL (≈ 1.62 µM); in the test with E. coli NCTC 10418, > 80 µg/mL. Also, the MIC in [3] stood at 1 µg/mL (≈ 2.59 µM); with Past. multocida PA2 it was 1.25 µg/mL (≈ 3.23 µM).

Regarding `CC(CC1OCC(CC2OC2C(C)C(C)O)C(O)C1O)=C(C)C(=O)O` [Example 4, Sodium 4-[5S-(2S, 35-epoxy-5S-hydroxy-4S-methylhexyl)-3R,4R-dihydroxytetrahydropyran-2S-yl]-2,3-dimethylbut-2(E)-enoate], the MIC is 0.25 µg/mL with M. suipneumoniae TAM 6N; 0.1 µg/mL in the test with M. suipneumoniae Str. 11; 0.025 µg/mL in the test on M. bovis NCTC 10131; 0.25 µg/mL with M. suipneumoniae NB12; 1.25 µg/mL in the test with Strep. dysgalactiae SPD1; 20 µg/mL in test [1]. For the same compound, the MIC with M. suipneumoniae MS 16 is 0.1 µg/mL; in the test with M. hyorhinis ATCC 23234, 0.1 µg/mL; in the test with Past. multocida PA1, 5 µg/mL; in the test on M. suipneumoniae LABER, 0.1 µg/mL; in [2], 1.25 µg/mL; in the test on E. coli NCTC 10418, > 80 µg/mL. The MIC was determined as 0.25 µg/mL in test [3] and 2.5 µg/mL in the test on Past. multocida PA2.

In the case of `CC(CC1OCC(CC2OC2C(C)C(C)O)C(O)C1O)=C(C)C(=O)OCc1cccc([N+](=O)[O-])c1` [Example 3, m-Nitrobenzyl 4-[5S-(2S,3S-epoxy-5S-hydroxy-4S-methylhexyl)-3R,4R-dihydroxytetrahydropyran-2S-yl]-2,3-di-methylbut-2(E)-enoate], the MIC was determined as 0.1 µg/mL (≈ 0.203 µM) in the test on M. suipneumoniae TAM 6N; 0.05 µg/mL (≈ 0.101 µM) with M. suipneumoniae Str. 11; 0.025 µg/mL (≈ 0.0507 µM) in the test with M. bovis NCTC 10131; 0.05 µg/mL (≈ 0.101 µM) with M. suipneumoniae NB12; 0.312 µg/mL (≈ 0.632 µM) with Strep. dysgalactiae SPD1; 10 µg/mL (≈ 20.3 µM) in test [1]. The MIC in the test with M. suipneumoniae MS 16 was 0.025 µg/mL (≈ 0.0507 µM); with M. hyorhinis ATCC 23234 it was 0.025 µg/mL (≈ 0.0507 µM); with Past. multocida PA1, 2.5 µg/mL (≈ 5.07 µM); in the test with M. suipneumoniae LABER it was 0.05 µg/mL (≈ 0.101 µM); in test [2], 1.25 µg/mL (≈ 2.53 µM); in the test on E. coli NCTC 10418 it was > 80 µg/mL. For the same compound, the MIC in test [3] is 0.25 µg/mL (≈ 0.507 µM); in the test on Past. multocida PA2 it was 1.25 µg/mL (≈ 2.53 µM).
